# Measurements reported in patent US11000586B2, “Adjuvant composition, vaccine composition containing the same, and method for producing both of them” (TERUMO KABUSHIKI KAISHA, priority 2013, dated 2021).
# What was measured:
# [1] = Release test: measurement of leakage
# Method: The term “Membrane disruptive function” denotes the function to bring about release in the release test. The release test described in this specification is a test comprising or consisting of adding liposomes (dispersion) encapsulating an aqueous solution containing a quenching substance and a fluorescent substance and a dispersion of a sample for evaluation to a properly pH-adjusted aqueous solution, incubating the resulting aqueous solution at 37° C. for 90 minutes or 30 minutes, and measuring the fluorescence intensity of the incubated aqueous solution. This method permits the measurement of the amount of the fluorescent substance which has been released from the liposomes. […] The release test will be described in more detail in the Examples.
# The evaluation was performed with the help of EYPC liposomes which contain Pyranine (as a fluorescent substance) and DPX (as a quencher).
# EYPC (3000 nmol) dissolved in chloroform was measured and placed in a 10-mL eggplant-shaped flask, and the EYPC was made into thin film with a rotary evaporator. To the flask was added a Pyranine solution (500 μL), which is composed of Pyranine (35 mM), DPX (50 mM), and MES (25 mM), and has pH 7.4. The thin film in the flask was dispersed with the help of an ultrasonic irradiator (USC-J). The resulting dispersion was passed through a porous polycarbonate film having a pore diameter of 100 nm with the help of an extruder, so as to make the particle size uniform. The resulting dispersion underwent substitution of the outer aqueous layer with the help of MES Buffer and G100 column. Thus, there was obtained a dispersion of EYPC liposomes encapsulating the fluorescent substance. The concentration of the lipid was determined with the help of phospholipid C-test Wako, and then it was adjusted with MES Buffer so that phospholipid became 1.0 mmol/L.
# The dispersion of EYPC liposomes (with its concentration adjusted) in an amount of 20 μL and the dispersion of a sample for evaluation in an amount of 20 μL were added to MES Buffer (with its pH adjusted) in an amount of 2960 μL. The resulting mixture underwent incubation at 37° C. for 90 or 30 minutes. Values resulting from incubation for 90 minutes are adopted in the Examples, unless otherwise indicated.
# The leakage was calculated assuming that the sheer dispersion of EYPC liposomes has 0% and the dispersion of EYPC liposomes incorporated with 30 μL of 10-fold diluted Triton-X100 has 100%. Specifically, the leakage was calculated from the following formula, L denotes the intensity of fluorescence measured, L0 denotes the intensity of fluorescence of the sheer dispersion of EYPC liposomes containing the fluorescent substance, and L100 denotes the intensity of fluorescence of the dispersion of EYPC liposomes incorporated with Triton-X100.
# [2] = test system: CD80; experiment: Evaluation of stimulus to activate innate immune system: expression of CD80 in cultured mice spleen cells (flow cytometry); conditions: for CD80 MFI, Amphipathic substance: amphipathic substance alone; for fluorescence intensity of CD80PE compared with PBS: solution (5 μL) of sample added alone: peptide, OVA 800 μg/mL, DLPC 1000 nmol/mL, deoxycholic acid 1600 nmol/mL, FIG. 8(B)
# Method: The evaluation of stimulus to activate innate immune system was performed as follows.
# A spleen was harvested from C57BL/6N mice. The harvested spleen was injected with 500 μL of collagenase solution, 2 mg/mL (prepared with RPMI medium) followed by incubation at 37° C. for 30 minutes. The spleen was made into cell suspension by treatment with BD Falcon cell strainer. The cells underwent hemolysis with RBC lysis buffer, followed by washing with RPMI medium. The cells were dispersed into RPMI medium, and the number of cells was counted. The cells were used for the subsequent procedure.
# The cells were inoculated into a 96-well dish such that 1.0×10^6 cells/100 μL. The cell dispersion was given 100 μL of RPMI medium containing a dispersion of different kind, followed by incubation overnight. These procedures were performed by using serum-free RPMI medium.
# The cells were recovered and washed with BD stain buffer. Then, the cells underwent incubation together with Anti-CD11cFITC, 0.25 μg/100 μL (4° C. for 30 minutes), so that the cells were stained. After washing, the cells underwent again incubation with Anti-CD80PE, Anti-CD86PE, or Anti-CD40PE, 0.25 μg/100 μL (4° C. for 30 minutes), so that the cells were stained. After washing at least more than three times, the cells were evaluated by using the flow cytometer (Cytomics FC500, Software: CXP software ver. 2).
# [3] = test system: CTL (IFNγ-secreting cells/total CD8 positive cells); experiment: Evaluation of CTL induction rate, ICS method, after immunization of mice; format: in vivo, C57BL/6N mice; set-up: key to CTL induction rate, Low MPL / CTL induction rate, High MPL: ratio of IFNγ-secreting cells to total CD8 positive cells; conditions: for CTL induction rate, High MPL: high MPL (22.7); for CTL induction rate, High MPL / CTL induction rate, Low MPL: n=3; for CTL induction rate, Low MPL: low MPL (0.0227)
# Method: Administration (100 μL/head) was performed by subcutaneous injection at one position on the back under anesthesia. […] For evaluation of cell-mediated immunity, administration was performed once and the assay was performed seven days after administration. For evaluation of humoral immunity, administration was performed twice. The second administration was performed 14 days after the first administration, and assay was performed seven days after the second administration.
# The mice were sacrificed on the seventh day after the last administration and had its spleen harvested. The spleen was given RPMI medium (3.0 mL) containing 10% serum and then treated by the BD Falcon cell strainer. Thus there was obtained a suspension of cells. […] The cells were dispersed into RPMI medium containing 10% serum. The number of cells was counted. Thus there was obtained a dispersion of spleen cells.
# For restimulation of the antigen, 10% serum-containing RPMI medium (100 μL) containing OVA peptide (40 μg/mL) was added, followed by incubation for three hours. Then, BD GolgiPlug was added such that its concentration was 0.2 μL/100 μL. Cell culture was performed overnight. In the case where the restimulation was not given, a 10% serum-containing RPMI medium not containing OVA peptide was used.
# After washing, the cells were stained with Anti-CD8aPE (at 4° C. for 30 minutes), followed by washing again. Then the cells were permeabilized with Cytofix/Cytoperm. After washing, the cells were stained with Anti-IFNγFITC (at 4° C. for 30 minutes). […] CTL induction rate was calculated in terms of the ratio between the IFNγ secreting cells and the total CD8 positive cells.
# It is known that MPL activates innate immune system and functions as an adjuvant even when used alone. It is also known that MPL induces cell-mediated immunity. Thus, a comparison was made as to the induction of cell-mediated immunity between MPL used alone and MPL used in combination with a pH-sensitive carrier in the form of the adjuvant composition. Each of the MPL and the adjuvant composition is administered together with an antigen. […] The above-mentioned solution or dispersion was subcutaneously administered once to the back of C57BL/6N mice, and the CTL induction rate was obtained according to the ICS method. The CTL induction rate is expressed in terms of the ratio of the IFNγ-secreting cells to the total CD8 positive cells in a specific area which is hardly affected by dead cells (IFNγ-secreting cells/total CD8 positive cells).
# [4] = Table 2, pH-sensitive substance alone
# [5] = antigen peptide 3.2 μg, DLPC, deoxycholic acid (160 nmol), subcutaneous once
# [6] = antigen peptide 16 μg, DLPC, deoxycholic acid (160 nmol), subcutaneous once
# [7] = antigen peptide 80 μg, DLPC, deoxycholic acid (160 nmol), subcutaneous once
# [8] = antigen peptide 400 μg, DLPC, deoxycholic acid (160 nmol), subcutaneous once
Molecule,"leakage, Alone, pH 5.0 ([1]; Table 1, substance alone) [%]","leakage, Alone, pH 7.4 ([1]; Table 1, substance alone) [%]","CD80 MFI, Amphipathic substance [2] [%]","leakage, Alone, pH 5.0 [1, 4] [%]","leakage, Alone, pH 7.4 [1, 4] [%]",further results
"Cc1c(C)c2c(c(C)c1O)CCC(C)(CCCC(C)CCCC(C)CCCC(C)C)O2 (racemic) [α-tocopherol, DL-α-tocopherol]",10.6 ± 1.3,5.5 ± 0.3,43.8 ± 4.9,–,–,–
C[C@H](CCC(=O)O)[C@H]1CC[C@H]2[C@@H]3[C@H](O)C[C@@H]4C[C@H](O)CC[C@]4(C)[C@H]3CC[C@]12C [Chenodeoxycholic acid],–,–,–,14.1 ± 0.9,0.7 ± 0.5,–
"CCCCCCCCCC(=O)OC[C@H](COP(=O)([O-])OCC[N+](C)(C)C)OC(=O)CCCCCCCCC [DDPC, 1,2-didecanoyl-sn-glycero-3-phosphatidylcholine]",37.1 ± 1.3,17.4 ± 0.1,36.5 ± 1.1,–,–,–
"CCCCCCCCCCCC(=O)OC[C@H](COP(=O)([O-])OCC[N+](C)(C)C)OC(=O)CCCCCCCCCCC [DLPC, 1,2-dilauroyl-sn-glycero-3-phosphatidylcholine]",5.5 ± 0.9,1.8 ± 1.2,38.5 ± 2.9,–,–,fluorescence intensity of CD80PE compared with PBS [2]: remained unchanged from that in the case where PBS was added
CC(CCC(=O)NCC(=O)O)C1CCC2C3CCC4CC(O)CCC4(C)C3CC(O)C12C (stereo not shown) [Glycodeoxycholic acid],–,–,–,9.8 ± 0.8,1.9 ± 1.2,–
CC1(C)[C@@H](O[C@H]2O[C@H](C(=O)O)[C@@H](O)[C@H](O)[C@H]2O[C@@H]2O[C@H](C(=O)O)[C@@H](O)[C@H](O)[C@H]2O)CC[C@]2(C)[C@H]3C(=O)C=C4[C@@H]5C[C@@](C)(C(=O)O)CC[C@]5(C)CC[C@@]4(C)[C@]3(C)CC[C@@H]12 [Glycyrrhizinic acid],–,–,–,16.7 ± 2.9,4.2 ± 1.2,–
C[C@H](CCC(=O)O)[C@H]1CC[C@H]2[C@@H]3C[C@H](O)[C@@H]4C[C@H](O)CC[C@]4(C)[C@H]3CC[C@]12C [Hyodeoxycholic acid],–,–,–,12.6 ± 0.4,4.2 ± 0.9,–
"CCCCCCCCCCCC(=O)OCCOCCOCCOCCOCCOCCOCCOCCOCCOCCOCCOCCOCCOCCOCCOCCOCCOCCOCCOCCOCC(OCCOCCOCCOCCOCCOCCOCCOCCOCCOCCOCCOCCOCCOCCOCCOCCOCCOCCOCCOCCO)C1OCC(OCCOCCOCCOCCOCCOCCOCCOCCOCCOCCOCCOCCOCCOCCOCCOCCOCCOCCOCCOCCO)C1OCCOCCOCCOCCOCCOCCOCCOCCOCCOCCOCCOCCOCCOCCOCCOCCOCCOCCOCCOCCO (stereo not shown) [Tween 20, polyoxyethylene sorbitan monolaurate ester]",74.0 ± 2.0,70.4 ± 3.9,38.0 ± 3.2,–,–,–
Monophosphoryl lipid A [MPL alone],–,–,–,–,–,"leakage at a low pH value compared with PBS alone ([1]; MPL (dispersed in PBS or DMSO) in an amount equivalent to MPL content 0.227, FIG. 9(A)): equivalent to that in the case where PBS was used alone; CTL induction rate (%), Adjuvant composition (with antigen not restimulated) ([3]; DLPC with pH-sensitive compound 160 nmol, MPL content 0.227, OVA (80 μg), dispersion, n=1, antigen not restimulated): 0.14%; CTL induction rate (%), Adjuvant composition ([3]; DLPC with pH-sensitive compound 160 nmol, MPL content 0.227, OVA (80 μg), dispersion, n=1, antigen restimulated): 0.25%; CTL induction rate by adjuvant composition (%), Antigen: OVA ([3]; antigen OVA (80 μg), DLPC, MPL content 0.227, deoxycholic acid amount (nmol) varied, dispersion, n=1): 0.18%; CTL induction rate by adjuvant composition (%), Antigen: peptide ([3]; antigen peptide (80 μg), DLPC, MPL content 0.227, deoxycholic acid amount (nmol) varied, dispersion, n=1): 0.22%; CTL induction rate ([3]; antigen peptide (80 μg), MPL content 0.227 or equivalent, DLPC, deoxycholic acid (160 nmol), subcutaneous once, FIGS. 3 and 4): 0.27%; CTL induction rate, High MPL [3, 5]: 0.45; CTL induction rate, High MPL [3, 6]: 0.36; CTL induction rate, High MPL [3, 7]: 0.37; CTL induction rate, High MPL [3, 8]: 0.58; CTL induction rate, Low MPL [3, 5]: 0.14; CTL induction rate, Low MPL [3, 6]: 0.31; CTL induction rate, Low MPL [3, 7]: 0.26; CTL induction rate, Low MPL [3, 8]: 0.46; CTL induction rate (%), Amphipathic substance-MPL ([3]; mixed thin film of amphipathic substance (100 nmol) and MPL (0.227) dispersed in antigen solution, OVA (80 μg), n=1): 0.20%"
sorbitan oleic acid ester [Span 80],18.1 ± 1.0,6.1 ± 0.6,39.6 ± 1.8,–,–,–
"OVA: OVA protein (EndoFit Ovalbumin: from InvivoGen), model antigen (protein, UniProt P01012 2-386, looked up) Ovalbumin: GSIGAASMEFCFDVFKELKVHHANENIFYCPIAIMSALAMVYLGAKDSTRTQINKVVRFDKLPGFGDSIEAQCGTSVNVHSSLRDILNQITKPNDVYSFSLASRLYAEERYPILPEYLQCVKELYRGGLEPINFQTAADQARELINSWVESQTNGIIRNVLQPSSVDSQTAMVLVNAIVFKGLWEKAFKDEDTQAMPFRVTEQESKPVQMMYQIGLFRVASMASEKMKILELPFASGTMSMLVLLPDEVSGLEQLESIINFEKLTEWTSSNVMEERKIKVYLPRMKMEEKYNLTSVLMAMGITDVFSSSANLSGISSAESLKISQAVHAAHAEINEAGREVVGSAEAGVDAASVSEEFRADHPFLFCIKHIATNAVLFFGRCVSP",–,–,–,–,–,fluorescence intensity of CD80PE compared with PBS [2]: remained unchanged from that in the case where PBS was added
